{
  "source": "patent US7265119B2",
  "about": "“Tartrate salts of 5,8,14-triazatetracyclo[10.3.1.02,11.04.9]-hexadeca-2(11),3,5,7,9-pentaene and pharmaceutical compositions thereof” (Pfizer Inc, priority 2001, dated 2007)",
  "type_in_all_cases": "physicochemical",
  "key": {"hygroscopicity": {"experiment": "hygroscopicity", "protocol": "Further, the Form B forms orthorhombic crystals belonging to the P2(1)2(1)2(1) space group. Form B is further characterized in having an onset of melting at about 215° C. as measured by differential scanning calorimetry at a heating rate of 5 degrees per minute. […] In addition, Form B has a hygroscopicity of approximately 0.2% at 90% relative humidity."}, "[1]": {"experiment": "native pH in aqueous solution"}, "[2]": {"experiment": "stability of the hydrate under vacuum at moderate temperature", "settings": "for stability (in words): ambient conditions / low humidity", "from_the_text": "The L-tartrate salt exists as three possible forms: two anhydrous forms and one hydrate form."}, "aqueous solubility": {"experiment": "aqueous solubility", "settings": "water, pH 3.3, water"}, "[3]": {"experiment": "polymorph stability / interconversion on exposure to relative humidity", "settings": "for stability at RH greater than 60%: experiments at 75% and 87% relative humidity", "from_the_text": "Upon filtering off the Form C which precipitates out as a white salt, the Form C salt may be air dried.\nExperiments at 23% and 43% RH have verified this phenomena."}, "[4]": {"experiment": "solid-state stability and excipient compatibility"}},
  "note": "Structures can show the parent of a compound that is named as a salt.",
  "data": [
    {"smiles": "O=C(O)C(O)C(O)C(=O)O.c1cnc2cc3c(cc2n1)C1CNCC3C1", "note": "[Form A′, D-tartrate salt of 5,8,14-triazatetracyclo[10.3.1.0^2,11.0^4,9]-hexadeca-2(11),3,5,7,9-pentaene]", "values": [
      {"measurement": "hygroscopicity compared with the corresponding Form A, B or C of the L-tartrate salt", "setting": "hygroscopicity", "value": "the same"}
    ]},
    {"smiles": "c1cnc2cc3c(cc2n1)C1CNCC3C1", "note": "[Form B, L-Tartrate Salt of 5,8,14-Triazatetracyclo[10.3.1.0^2,11.0^4,9]-hexadeca-2(11),3,5,7,9-pentaene (Anhydrous Polymorph, Form B)]", "values": [
      {"measurement": "native pH in aqueous solution", "setting": "[1]", "value": "about 3.3"},
      {"measurement": "stability (in words)", "setting": "[2]", "value": "most stable of the polymorphs at low humidity"},
      {"measurement": "hygroscopicity", "setting": "hygroscopicity; at 90% relative humidity", "value": "approximately 0.2%"},
      {"measurement": "solubility", "setting": "aqueous solubility", "value": "~156", "unit": "mg/mL"},
      {"measurement": "stability at RH greater than 60%", "setting": "[3]", "value": "relatively stable over a several month period"},
      {"measurement": "time for conversion of Form B to Form C", "setting": "[3]; exposed to 100% RH", "value": "≤ 2", "unit": "days"}
    ]},
    {"smiles": "O=C(O)C(O)C(O)C(=O)O.c1cnc2cc3c(cc2n1)C1CNCC3C1", "note": "[Form C, L-Tartrate Saft Form C of 5,8,14-Triazatetracyclo[10.3.1.0^2,11.0^4,9]-hexadeca-2(11),3,5,7,9-pentaene (Form C)]", "values": [
      {"measurement": "time the hydrate maintains its one equivalent of water under vacuum", "setting": "[2]; 45° C. vacuum oven", "value": "≥ 24", "unit": "h"},
      {"measurement": "stability (in words)", "setting": "[2]", "value": "relatively stable under ambient conditions"},
      {"measurement": "time after which the hydrate loses water and converts to anhydrous Form B", "setting": "[2]; under vacuum at moderate temperatures", "value": "≥ 48", "unit": "h"},
      {"measurement": "stability at RH greater than 60%", "setting": "[3]", "value": "relatively stable over a several month period"},
      {"measurement": "behaviour on exposure to less than 50% RH", "setting": "[3]; less than 50% RH, experiments at 23% and 43% RH", "value": "more slowly dehydrate"}
    ]},
    {"smiles": "c1cnc2cc3c(cc2n1)C1CNCC3C1", "note": "[L-tartrate salt, L-tartrate salt of 5,8,14-triazatetracyclo[10.3.1.0^2,11.0^4,9]-hexadeca-2(11),3,5,7,9-pentaene]", "values": [
      {"measurement": "solid-state stability", "setting": "[4]", "value": "high solid-state stability"},
      {"measurement": "inertness towards excipients", "setting": "[4]; common excipients", "value": "relative inertness towards common excipients"},
      {"measurement": "hygroscopicity (in words)", "setting": "hygroscopicity", "value": "very slightly hygroscopic"}
    ]}
  ]
}
